Measurements as given in patent publication US20070128217A1 (priority 2003, published 2007).

Legend:
[1] = system: antibodies in sera from SARS patients (sera 1a, 1b, 2, 6, 37, 62, London, SARS-yellow, SARS-green); assay type: binding, human; parameters: Binding of serum 6 to linear peptides of protein X1 of SARS-CoV Urbani / Binding of serum 37 to linear peptides of protein X1 of SARS-CoV Urbani / Binding of serum 6 to looped/cyclic peptide (PEPSCAN-ELISA) / Binding of serum 37 to looped/cyclic peptide (PEPSCAN-ELISA) / Binding of serum 37 to looped/cyclic peptides of protein X1 of SARS-CoV Urbani / Binding of serum 6 to linear peptides of protein X2 / Binding of serum 37 to linear peptides of protein X2 / Binding of serum 37 to looped/cyclic peptides of protein X2 of SARS-CoV Urbani / Binding of serum 6 to linear peptides of protein M of SARS-CoV Urbani / Binding of serum 37 to linear peptides of protein M of SARS-CoV Urbani / Binding of serum 6 to looped/cyclic peptides of protein M of SARS-CoV Urbani / Binding of serum 37 to looped/cyclic peptides of protein M of SARS-CoV Urbani / Binding of serum 6 to linear peptides of protein X3 of SARS-CoV Urbani / Binding of serum 37 to linear peptides of protein X3 of SARS-CoV Urbani / Binding of serum 37 to looped/cyclic peptides of protein X3 of SARS-CoV Urbani / Binding of serum 6 to linear peptides of protein X4 of SARS-CoV Urbani / Binding of serum 37 to linear peptides of protein X4 of SARS-CoV Urbani / Binding of serum 37 to looped/cyclic peptides of protein X4 of SARS-CoV Urbani / Binding of serum 6 to linear peptides of protein X5 of SARS-CoV Urbani / Binding of serum 37 to linear peptides of protein X5 of SARS-CoV Urbani / Binding of serum 37 to looped/cyclic peptides of protein X5 of SARS-CoV Urbani / Binding of serum 6 to linear peptides of protein N of SARS-CoV Urbani / Binding of serum 37 to linear peptides of protein N of SARS-CoV Urbani / Binding of serum 6 to linear peptide (PEPSCAN-ELISA) / Binding of serum 1a to looped/cyclic peptides of protein N of SARS-CoV Urbani / Binding of serum 1b to looped/cyclic peptides of protein N of SARS-CoV Urbani / Binding of serum 2 to looped/cyclic peptides of protein N of SARS-CoV Urbani / Binding of serum 6 to looped/cyclic peptides of protein N of SARS-CoV Urbani / Binding of serum 37 to looped/cyclic peptides of protein N of SARS-CoV Urbani / Binding of serum 62 to looped/cyclic peptides of protein N of SARS-CoV Urbani / Binding of serum London to looped/cyclic peptides of protein N of SARS-CoV Urbani / Binding of serum SARS-green to looped/cyclic peptides of protein N of SARS-CoV Urbani: unit not given here
[2] = system: control sera (pooled serum of ten healthy LUMC hospital workers; commercial negative donor pooled serum from the Dutch bloodbank); assay type: binding, human; parameters: Binding of Control serum LUMC to linear peptides / Binding of Control serum Blood-bank to linear peptides / Binding of Control serum LUMC to looped peptides / Binding of Control Serum Blood-Bank to Looped peptides / Binding of Control serum LUMC to linear peptides of the protein M of SARS-CoV Urbani / Binding of Control serum Blood-bank to linear peptides of the protein M of SARS-CoV Urbani / Binding of Control serum LUMC to looped peptides of the protein M of SARS-CoV Urbani / Binding of Control Serum Blood-Bank to Looped peptides of the protein M of SARS-CoV Urbani: unit not given here
[3] = system: rabbit serum obtained by immunizing a rabbit with the SARS-CoV strain Frankfurt 1; assay type: binding; parameters: Binding of a rabbit serum to linear peptides / Binding of a rabbit serum to looped peptides / Rabbit serum linear peptides / Rabbit serum looped peptides / Binding of a rabbit serum to linear peptides of protein N of SARS-CoV Urbani (Rabbit serum linear peptides) / Binding of a rabbit serum to looped/cyclic peptides of protein N of SARS-CoV Urbani (Rabbit serum looped peptides): unit not given here

TFRIAIWNLDVIISS
0.2: Binding of serum London to looped/cyclic peptides of protein X3 of SARS-CoV Urbani [1] | Binding of serum SARS-green to looped/cyclic peptides of protein X3 of SARS-CoV Urbani [1]
0.4: Binding of serum SARS-green to linear peptides of protein X3 of SARS-CoV Urbani [1] | Rabbit serum looped peptides [3]
0.5: Binding of serum 1b to linear peptides of protein X3 of SARS-CoV Urbani [1] | Binding of serum 1b to looped/cyclic peptides of protein X3 of SARS-CoV Urbani [1] | Binding of serum 6 to linear peptides of protein X3 of SARS-CoV Urbani [1] | Binding of serum SARS-yellow to looped/cyclic peptides of protein X3 of SARS-CoV Urbani [1]
0.6: Binding of serum 2 to linear peptides of protein X3 of SARS-CoV Urbani [1] | Binding of serum 2 to looped/cyclic peptides of protein X3 of SARS-CoV Urbani [1] | Binding of serum 37 to linear peptides of protein X3 of SARS-CoV Urbani [1] | Binding of serum 37 to looped/cyclic peptides of protein X3 of SARS-CoV Urbani [1] | Binding of serum SARS-yellow to linear peptides of protein X3 of SARS-CoV Urbani [1] | Binding of Control serum LUMC to looped peptides of the protein X3 of SARS-CoV Urbani [2]
0.7: Binding of serum 1a to looped/cyclic peptides of protein X3 of SARS-CoV Urbani [1] | Binding of serum 62 to linear peptides of protein X3 of SARS-CoV Urbani [1] | Binding of serum 62 to looped/cyclic peptides of protein X3 of SARS-CoV Urbani [1] | Binding of serum London to linear peptides of protein X3 of SARS-CoV Urbani [1] | Binding of Control serum LUMC to linear peptides of the protein X3 of SARS-CoV Urbani [2]
0.8: Binding of serum 1a to linear peptides of protein X3 of SARS-CoV Urbani [1] | Binding of Control Serum Blood-Bank to Looped peptides of the protein X3 of SARS-CoV Urbani [2] | Binding of Control serum Blood-bank to linear peptides of the protein X3 of SARS-CoV Urbani [2]
0.3: Binding of serum 6 to looped/cyclic peptides of protein X3 of SARS-CoV Urbani [1] | Rabbit serum linear peptides [3]

SFRLFARTRSMWSFN
0.3: Binding of serum London to linear peptides of protein M of SARS-CoV Urbani [1] | Binding of serum SARS-green to looped/cyclic peptides of protein M of SARS-CoV Urbani [1]
0.8: Binding of serum 1a to linear peptides of protein M of SARS-CoV Urbani [1] | Binding of serum 6 to looped/cyclic peptides of protein M of SARS-CoV Urbani [1] | Binding of serum 37 to linear peptides of protein M of SARS-CoV Urbani [1] | Rabbit serum linear peptides [3]
0.7: Binding of serum 1b to linear peptides of protein M of SARS-CoV Urbani [1] | Binding of serum 62 to linear peptides of protein M of SARS-CoV Urbani [1] | Binding of Control Serum Blood-Bank to Looped peptides of the protein M of SARS-CoV Urbani [2]
0.6: Binding of serum 1a to looped/cyclic peptides of protein M of SARS-CoV Urbani [1] | Binding of serum 37 to looped/cyclic peptides of protein M of SARS-CoV Urbani [1] | Binding of serum 62 to looped/cyclic peptides of protein M of SARS-CoV Urbani [1] | Binding of Control serum Blood-bank to linear peptides of the protein M of SARS-CoV Urbani [2] | Binding of Control serum LUMC to looped peptides of the protein M of SARS-CoV Urbani [2]
0.5: Binding of serum 1b to looped/cyclic peptides of protein M of SARS-CoV Urbani [1] | Binding of serum 2 to linear peptides of protein M of SARS-CoV Urbani [1] | Binding of serum 2 to looped/cyclic peptides of protein M of SARS-CoV Urbani [1] | Binding of serum SARS-yellow to looped/cyclic peptides of protein M of SARS-CoV Urbani [1]
0.2: Binding of serum 6 to linear peptides of protein M of SARS-CoV Urbani [1] | Binding of serum London to looped/cyclic peptides of protein M of SARS-CoV Urbani [1] | Rabbit serum looped peptides [3]
0.1: Binding of serum SARS-yellow to linear peptides of protein M of SARS-CoV Urbani [1]
0.4: Binding of serum SARS-green to linear peptides of protein M of SARS-CoV Urbani [1] | Binding of Control serum LUMC to linear peptides of the protein M of SARS-CoV Urbani [2]

AAYNRYRIGNYKLNT
0.6: Binding of serum 37 to linear peptides of protein M of SARS-CoV Urbani [1] | Rabbit serum looped peptides [3]
0.3: Binding of serum SARS-green to looped/cyclic peptides of protein M of SARS-CoV Urbani [1]
0.4: Binding of serum London to linear peptides of protein M of SARS-CoV Urbani [1] | Rabbit serum linear peptides [3]
0.9: Binding of Control serum Blood-bank to linear peptides of the protein M of SARS-CoV Urbani [2]
0.7: Binding of serum 1a to linear peptides of protein M of SARS-CoV Urbani [1] | Binding of serum 1a to looped/cyclic peptides of protein M of SARS-CoV Urbani [1] | Binding of serum 2 to linear peptides of protein M of SARS-CoV Urbani [1] | Binding of serum 62 to looped/cyclic peptides of protein M of SARS-CoV Urbani [1] | Binding of serum SARS-yellow to looped/cyclic peptides of protein M of SARS-CoV Urbani [1] | Binding of Control serum LUMC to looped peptides of the protein M of SARS-CoV Urbani [2]
0.5: Binding of serum 1b to linear peptides of protein M of SARS-CoV Urbani [1] | Binding of serum 1b to looped/cyclic peptides of protein M of SARS-CoV Urbani [1] | Binding of serum 37 to looped/cyclic peptides of protein M of SARS-CoV Urbani [1] | Binding of serum 62 to linear peptides of protein M of SARS-CoV Urbani [1] | Binding of serum London to looped/cyclic peptides of protein M of SARS-CoV Urbani [1] | Binding of serum SARS-green to linear peptides of protein M of SARS-CoV Urbani [1]
0.8: Binding of serum 2 to looped/cyclic peptides of protein M of SARS-CoV Urbani [1] | Binding of serum 6 to linear peptides of protein M of SARS-CoV Urbani [1] | Binding of Control Serum Blood-Bank to Looped peptides of the protein M of SARS-CoV Urbani [2] | Binding of Control serum LUMC to linear peptides of the protein M of SARS-CoV Urbani [2]
1.3: Binding of serum 6 to looped/cyclic peptides of protein M of SARS-CoV Urbani [1]
0.2: Binding of serum SARS-yellow to linear peptides of protein M of SARS-CoV Urbani [1]
